Test results: ChEMBL document CHEMBL5260810, “Inhibition of bromodomain-containing protein 9 for the prevention of epigenetically-defined drug resistance” (Bioorg Med Chem Lett, 2017)
Activity calls are given as the source filed them. No cut-off for these calls is given here.

How the values were obtained:
[1] = tested on: KARPAS-422; assay: Cytotoxicity against human KARPAS-422 cells measured after 3 days; assay type: functional, cell-based; details: KARPAS-422, 72 h
[2] = Cytotoxicity against human KMS-27 cells measured after 3 days; assay type: functional, cell-based; details: KMS-27, 72 h
[3] = tested on: NAMALVA; assay: Cytotoxicity against human NAMALVA cells measured after 3 days; assay type: functional, cell-based; details: 72 h
[4] = tested on: Ramos; assay: Cytotoxicity against human Ramos cells measured after 3 days; assay type: functional, cell-based; details: 72 h
[5] = tested on: U-937; assay: Cytotoxicity against human U-937 cells measured after 3 days; assay type: functional, cell-based; details: U-937, 72 h
[6] = tested on: JIYOYE; assay: Cytotoxicity against human JIYOYE cells measured after 3 days; assay type: functional, cell-based; details: 72 h
[7] = tested on: TK-10; assay: Cytotoxicity against human TK-10 cells measured after 3 days; assay type: functional, cell-based; details: TK-10, 72 h
[8] = Cytotoxicity against human HuH-1 cells measured after 3 days; assay type: functional, cell-based; details: HuH-1, 72 h
[9] = tested on: Huh-7; assay: Cytotoxicity against human Huh-7 cells measured after 3 days; assay type: functional, cell-based; details: Huh-7, 72 h
[10] = Cytotoxicity against human JHH-1 cells measured after 3 days; assay type: functional, cell-based; details: JHH1, 72 h
[11] = tested on: PLC-PRF-5; assay: Cytotoxicity against human PLC-PRF-5 cells measured after 3 days; assay type: functional, cell-based; details: PLC-PRF-5, 72 h
[12] = tested on: SNU-449; assay: Cytotoxicity against human SNU-449 cells measured after 3 days; assay type: functional, cell-based; details: SNU-449, 72 h
[13] = Cytotoxicity against human HCC2450 cells measured after 3 days; assay type: functional, cell-based; details: HCC2450, 72 h
[14] = tested on: LP-1; assay: Cytotoxicity against human LP-1 cells measured after 3 days; assay type: functional, cell-based; details: LP-1, 72 h
[15] = tested on: TMD8; assay: Cytotoxicity against human TMD8 cells measured after 3 days; assay type: functional, cell-based; details: TMD8, 72 h
[16] = tested on: ML-2; assay: Cytotoxicity against human ML-2 cells measured after 3 days; assay type: functional, cell-based; details: ML-2, 72 h
[17] = tested on: IMR-32; assay: Cytotoxicity against human IMR-32 cells measured after 3 days; assay type: functional, cell-based; details: IMR-32, 72 h
[18] = Cytotoxicity against human NCE-G 121 cells measured after 3 days; assay type: functional, cell-based; details: NCE-G 121, 72 h
[19] = Cytotoxicity against human EB1 cells measured after 3 days; assay type: functional, cell-based; details: EB1, 72 h
[20] = tested on: SU-DHL-6; assay: Cytotoxicity against human SU-DHL-6 cells measured after 3 days; assay type: functional, cell-based; details: SU-DHL-6, 72 h
[21] = tested on: SK-MES-1; assay: Cytotoxicity against human SK-MES-1 cells measured after 3 days; assay type: functional, cell-based; details: SK-MES-1, 72 h
[22] = tested on: A2780; assay: Cytotoxicity against human A2780 cells measured after 3 days; assay type: functional, cell-based; details: A2780, 72 h
[23] = tested on: IGROV-1; assay: Cytotoxicity against human IGROV-1 cells measured after 3 days; assay type: functional, cell-based; details: IGROV-1, 72 h
[24] = Cytotoxicity against human OVCA429 cells measured after 3 days; assay type: functional, cell-based; details: OVCA429, 72 h
[25] = tested on: SW982; assay: Cytotoxicity against human SW982 cells measured after 3 days; assay type: functional, cell-based; details: SW982, 72 h
[26] = tested on: CAL-148; assay: Cytotoxicity against human CAL-148 cells measured after 3 days; assay type: functional, cell-based; details: CAL-148, 72 h
[27] = Cytotoxicity against human MCAS cells measured after 3 days; assay type: functional, cell-based; details: 72 h
[28] = tested on: TYK-nu; assay: Cytotoxicity against human TYK-nu cells measured after 3 days; assay type: functional, cell-based; details: 72 h
[29] = Cytotoxicity against human 59M cells measured after 3 days; assay type: functional, cell-based; details: 72 h
[30] = tested on: OV-90; assay: Cytotoxicity against human OV-90 cells measured after 3 days; assay type: functional, cell-based; details: OV-90, 72 h
[31] = Cytotoxicity against human OVCAR433 cells measured after 3 days; assay type: functional, cell-based; details: OVCAR433, 72 h
[32] = Cytotoxicity against human Hs 839.T cells measured after 3 days; assay type: functional, cell-based; details: 72 h
[33] = Cytotoxicity against human EFM-192A cells measured after 8 days; assay type: functional, cell-based; details: 192 h
[34] = Cytotoxicity against human EFM-192C cells measured after 8 days; assay type: functional, cell-based; details: 192 h
[35] = tested on: NCI-H1793; assay: Cytotoxicity against human NCI-H1793 cells measured after 8 days; assay type: functional, cell-based; details: NCI-H1793, 192 h
[36] = tested on: MDA-MB-415; assay: Cytotoxicity against human MDA-MB-415 cells measured after 8 days; assay type: functional, cell-based; details: MDA-MB-415, 192 h
[37] = Cytotoxicity against human NCI-H820 cells measured after 8 days; assay type: functional, cell-based; details: NCI-H820, 192 h
[38] = tested on: TERT-RPE1; assay: Cytotoxicity against hTERT-RPE1 cells measured after 8 days; assay type: functional, cell-based; details: Homo sapiens, RPE-1, 192 h
[39] = tested on: EBC-1; assay: Cytotoxicity against human EBC-1 cells after 8 days; assay type: functional, cell-based; details: EBC-1, 192 h
[40] = Cytotoxicity against human HCC193 cells after 8 days; assay type: functional, cell-based; details: HCC193, 192 h
[41] = tested on: NCI-H1573; assay: Cytotoxicity against human NCI-H1573 cells after 8 days; assay type: functional, cell-based; details: NCI-H1573, 192 h
[42] = tested on: MIA PaCa-2; assay: Antiproliferative activity against human MIA PaCa-2 cells assessed as reduction in colony formation up to 20 uM supplemented with fresh medium containing compound every 3 days for 9 days by MTT staining based clonogenic assay; assay type: functional, cell-based; details: time 9.0 day
[43] = tested on: PANC-1; assay: Antiproliferative activity against human PANC-1 cells assessed as reduction in colony formation up to 20 uM supplemented with fresh medium containing compound every 3 days for 9 days by MTT staining based clonogenic assay; assay type: functional, cell-based; details: time 9.0 day
[44] = tested on: A-375; assay: Antiproliferative activity against human A-375 cells assessed as reduction in colony formation up to 20 uM supplemented with fresh medium containing compound every 3 days for 9 days by MTT staining based clonogenic assay; assay type: functional, cell-based; details: time 9.0 day
[45] = tested on: HL-60; assay: Cytotoxicity against human HL-60 cells measured after 8 days; assay type: functional, cell-based; details: HL-60, 192 h
[46] = molecular target: T1, Bromodomain-containing protein 9 (Homo sapiens) (UniProt Q9H8M2); assay: Inhibition of BRD9 in human PC-9 cells assessed as reduction in ALDH1A1 gene expression at 2 uM preincubated with erlotinib for 8 days followed by compound addition and measured after 24 hrs by RNA sequencing analysis; assay type: cell-based
T1 sequence (whole entry): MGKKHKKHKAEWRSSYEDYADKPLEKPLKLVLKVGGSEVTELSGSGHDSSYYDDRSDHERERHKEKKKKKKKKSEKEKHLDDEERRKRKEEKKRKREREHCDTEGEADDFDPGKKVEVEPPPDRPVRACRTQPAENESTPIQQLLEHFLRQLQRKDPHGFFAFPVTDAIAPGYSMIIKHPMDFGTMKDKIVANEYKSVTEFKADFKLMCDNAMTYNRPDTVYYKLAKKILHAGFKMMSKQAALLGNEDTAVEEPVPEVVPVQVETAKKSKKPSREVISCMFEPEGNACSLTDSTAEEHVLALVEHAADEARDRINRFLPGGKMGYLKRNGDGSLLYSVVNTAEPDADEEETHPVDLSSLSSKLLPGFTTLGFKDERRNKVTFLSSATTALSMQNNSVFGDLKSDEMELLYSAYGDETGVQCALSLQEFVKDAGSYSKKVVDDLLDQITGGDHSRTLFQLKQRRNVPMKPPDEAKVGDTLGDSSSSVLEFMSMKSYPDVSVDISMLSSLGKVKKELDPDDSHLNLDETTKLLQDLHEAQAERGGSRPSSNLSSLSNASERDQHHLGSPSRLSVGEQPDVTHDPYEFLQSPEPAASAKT

C/C=C/Cn1cc(-c2cc(OC)c(C(=O)N3CCOCC3)cc2OC)c2cc(C)[nH]c2c1=O
IC50 [1]: 5 µM
IC50 [2]: 5 µM
IC50 [3]: 5 µM
IC50 [4]: 5 µM
IC50 [5]: 5 µM
IC50 [6]: 5 µM
IC50 [7]: 5 µM
IC50 [8]: 5 µM
IC50 [9]: 5 µM
IC50 [10]: 5 µM
IC50 [11]: 5 µM
IC50 [12]: 5 µM
IC50 [13]: 5 µM
IC50 [14]: 5 µM
IC50 [15]: 5 µM
IC50 [16]: 5 µM
IC50 [17]: 5 µM
IC50 [18]: 5 µM
IC50 [19]: 5 µM
IC50 [20]: 5 µM
IC50 [21]: 5 µM
IC50 [22]: 5 µM
IC50 [23]: 5 µM
IC50 [24]: 5 µM
IC50 [25]: 5 µM
IC50 [26]: 5 µM
IC50 [27]: 5 µM
IC50 [28]: 5 µM
IC50 [29]: 5 µM
IC50 [30]: 5 µM
IC50 [31]: 5 µM
IC50 [32]: 5 µM
IC50 [33]: 2 µM
IC50 [34]: 2 µM
IC50 [35]: 2 µM
IC50 [36]: 2 µM
IC50 [37]: 2 µM
IC50 [38]: 2 µM
IC50 [39]: 2 µM
IC50 [40]: 2 µM
IC50 [41]: 2 µM

C/C=C/Cn1cc(-c2ccc(C(C)(C)O)cc2OC)c2cc[nH]c2c1=O
Activity [42]: inactive
Activity [43]: inactive
Activity [44]: inactive
IC50 [45]: 13.6 µM

C/C=C/Cn1cc(-c2ccc(C(=O)N3CCOCC3)cc2)c2cc[nH]c2c1=O
inhibition [46]: Active
